This note sets out measurements from ChEMBL document CHEMBL1201862, “PubChem BioAssay data set” (2004).

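A five-concentration, 48-hour dose response in 96-well plates underlies each endpoint, interpolated linearly between surrounding concentrations. At the GI50, growth is halved.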 Activity calls are given as the source filed them. Cut-off read from the data, not from the text of the source: active = GI50 up to about 1.1 µM and inactive = higher. Bounds are passed on as bounds.

Among the test systems are XF498; M19-MEL; SNB-78; RXF 631; DMS-273; LXFL 529; HOP-18; KM-20L2.
Holding throughout (test): growth of human tumour cells (NCI), 48 h

Consider `COc1cccc2cc(C)c(C(=O)c3ccccc3)nc12`, for which the GI50 with XF498, in the test with M19-MEL, with SNB-78, in the test on RXF 631, with DMS-273 and in the test on LXFL 529 was > 100 µM (inactive) throughout. In addition, the GI50 in the test on HOP-18 and in the test on KM-20L2 was > 100 µM (inactive) throughout.

For `N/N=c1/nc2n(c3ncccc13)C=CNN2`, the GI50 with XF498, in the test on RXF 631, in the test with DMS-273, with LXFL 529 and with KM-20L2 was > 100 µM (inactive) throughout.

As to `CCCCCCC(=O)OC[n+]1ccc2c(C)c3[nH]c4ccccc4c3c(C)c2c1`, the GI50 was 1.04 µM (active) with M19-MEL; 1.09 µM (active) in the test on SNB-78; 2.54 µM (inactive) in the test with RXF 631; 0.106 µM (active) in the test on DMS-273; 0.785 µM (active) in the test on LXFL 529; 0.582 µM (active) in the test on KM-20L2.

With `CCSc1nnc(CSc2nc(-c3ccccc3)c(-c3ccccc3)[nH]2)n1-c1ccccc1`, the GI50 in the test with XF498 is 20.3 µM (inactive); in the test on M19-MEL, 18.6 µM (inactive); with SNB-78, 41.1 µM (inactive); in the test with RXF 631 it was 19.6 µM (inactive); in the test with DMS-273 it was 23.4 µM (inactive); with LXFL 529, 27.4 µM (inactive). Besides, the GI50 in the test with HOP-18 is 13.8 µM (inactive); with KM-20L2 it was 17.9 µM (inactive).

`O=C1CC(c2c[nH]c3ccccc23)C(=O)N1` (stereo not drawn): the GI50 in the test with XF498, with M19-MEL, in the test with SNB-78, with RXF 631, in the test on DMS-273 and in the test with LXFL 529 was > 100 µM (inactive) in each case. In addition, the GI50 in the test with KM-20L2 was > 100 µM (inactive).

`COCC1C(=O)c2cc3c(cc2C12C=CC1(C=C2)OCCO1)OCO3` (stereo not drawn): the GI50 was 5.38 µM (inactive) in the test with XF498; 2.93 µM (inactive) with M19-MEL; 4.59 µM (inactive) in the test on RXF 631; 11.1 µM (inactive) in the test on DMS-273; 2.49 µM (inactive) in the test on LXFL 529; 10.6 µM (inactive) with KM-20L2.

For `N#CC1CCCCOCCOCCOCCOCCOCCCCCC1=O` (stereo not drawn), the GI50 in the test with M19-MEL, in the test on SNB-78, in the test on RXF 631, with DMS-273, in the test on LXFL 529 and in the test on HOP-18 was > 100 µM (inactive) each time. In addition, in the test on KM-20L2, the GI50 was > 100 µM (inactive).

Consider `O=C(Cc1csc(-c2nc(CC(=O)NNc3ccccc3)cs2)n1)NNc1ccccc1`, for which the GI50 in the test on XF498 is > 100 µM (inactive); in the test with M19-MEL, > 100 µM (inactive); in the test on SNB-78, > 100 µM (inactive); in the test on RXF 631, > 10 µM (inactive); in the test on DMS-273, 12.8 µM (inactive); with LXFL 529, 91.2 µM (inactive). In addition, the GI50 in the test with HOP-18 and with KM-20L2 was > 100 µM (inactive) each time.

For the compound `Cc1cc(Br)cc(C)c1NC(=O)C(=O)C(C(=O)c1ccncc1)C1OC(=O)c2ccccc21` (stereo not drawn), the GI50 with XF498, with SNB-78, with RXF 631, with DMS-273, in the test with LXFL 529 and in the test on HOP-18 was > 100 µM (inactive) throughout. Also, the GI50 in the test with KM-20L2 is > 100 µM (inactive).

Turning to `CCOC(=O)Nc1ccc(S(=O)(=O)OC)cc1.CCOC(=O)Nc1ccc(S(=O)(=O)OC)cc1.Nc1ncnc2c1ncn2C1OC(CO)C(O)C1O` (stereo not drawn), the GI50 in the test with XF498 is 92.3 µM (inactive); with M19-MEL it was 21.9 µM (inactive); in the test on SNB-78, > 100 µM (inactive); with RXF 631 it was > 100 µM (inactive); with DMS-273, 30.8 µM (inactive); in the test on LXFL 529, > 100 µM (inactive). Besides, the GI50 with HOP-18 and in the test with KM-20L2 was > 100 µM (inactive) throughout.

Consider `C/C(CCn1[nH]c(=O)ccc1=O)=N\O`, for which the GI50 in the test with XF498, in the test on M19-MEL, with SNB-78, with RXF 631, in the test with DMS-273 and in the test with LXFL 529 was > 100 µM (inactive) each time. Besides, the GI50 in the test on HOP-18 and in the test with KM-20L2 was > 100 µM (inactive) each time.

In the case of `CCOC(=O)CC1=Nc2ccccc2SC1`, the GI50 in the test with XF498, in the test with M19-MEL, in the test with SNB-78, in the test with RXF 631, in the test on DMS-273 and in the test with LXFL 529 was > 100 µM (inactive) each time. In addition, the GI50 with HOP-18 and in the test with KM-20L2 was > 100 µM (inactive) each time.

For `CC(=O)Oc1ccc(O)c(O)c1C/C=C(\C)CC/C=C(\C)CC/C=C(\C)CCC=C(C)C` [TETRAPRENYLPHENOLSUILLIN], the GI50 in the test with XF498 is 0.357 µM (active); in the test on M19-MEL, 0.393 µM (active); in the test on SNB-78 it was 0.272 µM (active); in the test on DMS-273 it was 0.246 µM (active); with LXFL 529 it was 0.284 µM (active); in the test with HOP-18, 0.187 µM (active). Also, the GI50 in the test on KM-20L2 was 0.946 µM (active).
